Article PMC13172357 (Nature Communications, 2026)

What was measured:
[1] = tested on: proteins enriched from Panc89 lysate; assay: Competitive pulldown with NK264-functionalized beads, mass spectrometry; type: binding, human; conditions: 10 µM competitor
Experimental: The next steps were carried out at room temperature unless noted otherwise. Afterwards, the samples were mixed shortly (1 min, 1000 rpm) and collected by short centrifugation (10 s, 200 ×g). Protein binding was induced by the addition of an equal volume of pure ethanol (10 min, 1000 rpm), the beads were collected by a brief centrifugation step (10 s, 200 ×g) and the plate was placed on a magnetic stand. Beads were allowed to bind for at least 5 min before the supernatant was removed. The beads were then taken up in 180 µL 80% ethanol and transferred to a fresh multiwell plate.
Samples were incubated at 37 °C for 19 h while shaking (1300 rpm). On the next day, the samples were briefly centrifuged (10 s, 200 ×g) and placed on a magnet for 5 min. The clear solution containing the tryptic peptides was transferred to a fresh multiwell plate. The beads were taken up in 47 µL 25 mM ammonium bicarbonate and incubated while shaking (10 min, 1000 rpm).

[2] = tested on: Panc89 cells; assay: Confluence measurement (cell growth), Panc89; type: cell-based, human; conditions: Panc89, 1-10 µM, 72 h, 25 mM or 5 mM D-glucose
[3] = tested on: Panc89 cells; assay: Total proteome analysis, DDA mass spectrometry, Panc89 cells; type: cell-based, H. sapiens; conditions: DDA Panc89, 5 µM, 6, 24 or 72 h
Experimental: Following treatment, cells were harvested, washed twice with PBS, and pellets were flash frozen in liquid nitrogen before being stored at −80 °C. Samples were prepared using the single-pot, solid-phase-enhanced sample-preparation (SP3) strategy. All buffers and solutions were prepared with mass spectrometry (MS)-grade water (Honeywell). Cell pellets were taken up in 100 µL 1x sample buffer (50 mM Hepes pH 8.0, 1% (wt/v) SDS, 1% (v/v) NP-40, 10 mM TCEP, 40 mM chloroacetamide) and samples were heated at 90 °C for 5 min prior to sonication with a Bioruptor UCD-300 (Diagenode) for ten cycles of 1 min pulse and 30 s pause at high power. The samples were then supplemented with Benzonase (20 U/sample) and sonified for 5 min in a water bath (Bandelin) followed by 30 min incubation at […].
The protein extracts were then centrifuged (20000 ×g, RT, 40 min) and the protein concentration of the cleared lysates was determined using the Pierce 660 nm Protein Assay Reagent (#22660; Thermo Scientific) with the Ionic Detergent Compatibility Reagent (#22663; Thermo Scientific) according to the manufacturers’ instructions. Next, 15 µg of total protein per sample in a volume of 100 µL sample buffer was transferred to a 500 µL 96-well plate and treated with 7 U of benzonase (#71206; Merck Millipore) in dilution buffer (20 mM Hepes pH 8.0, 2 mM MgCl2) at 37 °C for 30 min with agitation at 1500 rpm. After Benzonase treatment samples were heated to 90 °C for 5 min and after cooling down to room temperature, iodoacetamide to a final concentration of 10 mM was added for complete alkylation of cysteines (37 °C, 15 min, 1000 rpm, in the dark).
Then, 3 µL of a 50 µg/µL 1:1 mixture of hydrophilic (#45152105050250) and hydrophobic (#65152105050250) carboxylate modified Sera-Mag SpeedBeads (Cytiva), that were washed twice with MS-grade water, were added to the samples. The next steps were carried out at room temperature unless noted otherwise. Afterwards, the samples were mixed shortly (1 min, 1000 rpm) and collected by short centrifugation (10 s, 200 ×g). […]

[4] = tested on: Ma-Mel-47 USP7 K.O. cells; assay: Medium color switch (images), Ma-Mel-47 USP7 K.O. cells; type: cell-based, human; conditions: Ma-Mel-47 USP7-KO, 72 h, 5 µM NK192, 10 µM FT671, 1 µM NK266
[5] = molecular target: HiBiT-USP7 (Homo sapiens, UniProt Q93009); assay: HiBiT USP7 degradation assay, MV4-11 cells; type: cell-based; conditions: MV4-11 HiBiT-USP7, 6 h and 24 h
Experimental: HiBiT-USP7 construct was cloned by extraction of USP7 fragment from plasmid pQHA-USP7 WT puroR (Addgene #46753) using appropriate restriction sites. The USP7 fragment was then ligated into the pRRL-PGK-HiBiT entry vector to generate the plasmid.
Lentiviral infection was used to generate stable a MV4-11 HiBiT cell line. Lentivirus was produced using plasmids psPAX2, pMD2.G, and HiBiT-USP7 plasmid in HEK293 cells. MV4-11 cells were infected with filtered virus supernatant and selected after 48 h of infection for the generation of the stable MV4-11^HiBiT-USP7 cell line.
The assay was performed as described previously. Briefly, MV4-11^HiBiT-USP7 cells were seeded and treated with compounds for the indicated time. Nano-Glo HiBiT Lytic Detection System (Promega) was used for the assay and luminescence was measured on a Tecan Spark microplate reader (Tecan). DC50 values were calculated using the sigmoidal dose-response (four parameters) equation in GraphPad Prism and are given as the concentration where 50% of the total signal was remaining. Dmax values are given as the maximum degradation observed at any concentration.

[6] = molecular target: T1, human USP7 full length protein (Homo sapiens, UniProt Q93009); assay: USP7 inhibition assay (Ubiquitin-Rhodamine110Gly cleavage); type: biochemical; conditions: Ub-RhoG cleavage, read-out: IC50 (half-maximal inhibition)
T1 construct: human USP7 full length protein
Experimental: USP7 inhibitors in DMSO were diluted in UbR buffer (40 mM Tris-HCl pH 8, 150 mM NaCl, 1 mM TCEP, 0.1 mg/mL BSA, 0.01% Tween20) to a concentration of 80 μM (4x). This stock was then further diluted in an 11-times serial dilution in UbR buffer containing 4% DMSO (4x). To this was added the same volume of human USP7 full length protein[59] […] The assay was initiated upon addition of 10 μL per well of Ubiquitin-Rhodamine110Gly (Ub-RhoG) (100 nM in UbR buffer, 2x). […] Normalization was carried out using samples featuring either no inhibitor or no enzyme as respective controls. […] Slopes of fluorescence over time curves were determined with Microsoft Excel through linear regression using the first 15 min of each measurement.

T1 sequence (Q93009 whole entry): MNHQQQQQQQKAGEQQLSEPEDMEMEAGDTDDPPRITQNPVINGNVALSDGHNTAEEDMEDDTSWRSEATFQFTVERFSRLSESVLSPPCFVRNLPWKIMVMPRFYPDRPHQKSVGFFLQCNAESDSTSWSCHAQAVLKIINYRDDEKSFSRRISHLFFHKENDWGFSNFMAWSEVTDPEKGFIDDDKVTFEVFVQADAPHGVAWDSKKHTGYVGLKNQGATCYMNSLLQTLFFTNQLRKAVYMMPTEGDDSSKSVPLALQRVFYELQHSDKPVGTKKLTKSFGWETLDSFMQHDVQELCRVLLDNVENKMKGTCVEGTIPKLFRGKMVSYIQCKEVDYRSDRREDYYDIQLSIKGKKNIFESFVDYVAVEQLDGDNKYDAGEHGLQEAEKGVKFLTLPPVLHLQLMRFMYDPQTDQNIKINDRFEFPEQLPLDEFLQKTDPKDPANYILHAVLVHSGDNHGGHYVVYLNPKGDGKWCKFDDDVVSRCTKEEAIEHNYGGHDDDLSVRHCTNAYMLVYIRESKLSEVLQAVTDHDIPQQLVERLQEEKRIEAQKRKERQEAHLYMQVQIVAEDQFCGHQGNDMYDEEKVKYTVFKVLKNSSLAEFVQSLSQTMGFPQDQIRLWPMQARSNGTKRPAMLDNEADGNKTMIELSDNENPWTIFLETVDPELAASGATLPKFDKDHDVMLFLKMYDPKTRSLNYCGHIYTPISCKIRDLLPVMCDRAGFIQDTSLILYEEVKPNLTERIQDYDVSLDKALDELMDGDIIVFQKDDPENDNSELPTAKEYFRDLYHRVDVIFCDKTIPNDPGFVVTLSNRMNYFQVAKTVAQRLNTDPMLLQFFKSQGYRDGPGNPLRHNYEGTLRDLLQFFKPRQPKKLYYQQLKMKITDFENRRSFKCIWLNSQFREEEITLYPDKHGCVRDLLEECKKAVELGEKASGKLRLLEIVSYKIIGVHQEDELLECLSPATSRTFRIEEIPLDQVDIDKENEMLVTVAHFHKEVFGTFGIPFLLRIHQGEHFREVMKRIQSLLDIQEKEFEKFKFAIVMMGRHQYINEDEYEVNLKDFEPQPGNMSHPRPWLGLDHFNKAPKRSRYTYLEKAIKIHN
Sequence of HiBiT-USP7 (Q93009 whole entry, the tested form may be a part): as the sequence (Q93009 whole entry) above

SMILES: C[C@H](CC(=O)N1CCC(O)(Cn2cnc3c(cnn3-c3ccc(F)cc3)c2=O)CC1)c1ccccc1 [NK192]
- Proteome-wide target specificity (in words) [1]: very high specificity for USP7
- Cell growth (in words) [2]: not affected
- USP7 protein level changes (in words) [3]: did not lead to USP7 protein level changes beyond the significance threshold
- Change of media color (in words) [4]: the same change of media color
- HiBiT-USP7 levels (in words) [5]: partial reduction of USP7 levels
- IC50 [6]: 20 nM
